From publication PMC7613998, “Development of selective inhibitors of phosphatidylinositol 3-kinase C2α” (Nature Chemical Biology, 2022)

Assays:
Assay in all cases: biochemical
Design in all cases: SelectScreen LanthaScreen kinase binding assay, per cent tracer displacement, mean of two points
Conditions in all cases: tracer displacement
[1] = target: KIT V559D T670I (Homo sapiens, UniProt P10721, T670I/V559D)
[2] = target: T1, MAP3K7/MAP3K7IP1 (TAK1-TAB1) (Homo sapiens, UniProt O43318)
T1 construct: TAK1-TAB1
T1 sequence (O43318 1-606): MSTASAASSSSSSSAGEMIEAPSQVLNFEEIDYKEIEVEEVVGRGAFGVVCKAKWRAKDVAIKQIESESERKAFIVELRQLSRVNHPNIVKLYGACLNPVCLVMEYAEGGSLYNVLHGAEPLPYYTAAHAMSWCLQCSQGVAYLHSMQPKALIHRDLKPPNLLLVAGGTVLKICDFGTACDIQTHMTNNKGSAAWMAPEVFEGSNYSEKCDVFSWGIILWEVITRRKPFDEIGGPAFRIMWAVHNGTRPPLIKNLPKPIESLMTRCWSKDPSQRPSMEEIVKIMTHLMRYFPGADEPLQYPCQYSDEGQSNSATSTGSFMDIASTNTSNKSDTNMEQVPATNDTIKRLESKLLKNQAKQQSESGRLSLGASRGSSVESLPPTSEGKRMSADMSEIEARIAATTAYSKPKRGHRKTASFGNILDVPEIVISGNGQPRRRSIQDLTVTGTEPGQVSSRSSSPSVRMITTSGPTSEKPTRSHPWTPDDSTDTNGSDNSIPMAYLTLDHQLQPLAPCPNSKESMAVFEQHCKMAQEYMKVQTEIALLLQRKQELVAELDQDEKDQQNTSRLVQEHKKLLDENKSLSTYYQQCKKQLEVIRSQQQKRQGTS
T1 sequence (Q15750 1-504 partner): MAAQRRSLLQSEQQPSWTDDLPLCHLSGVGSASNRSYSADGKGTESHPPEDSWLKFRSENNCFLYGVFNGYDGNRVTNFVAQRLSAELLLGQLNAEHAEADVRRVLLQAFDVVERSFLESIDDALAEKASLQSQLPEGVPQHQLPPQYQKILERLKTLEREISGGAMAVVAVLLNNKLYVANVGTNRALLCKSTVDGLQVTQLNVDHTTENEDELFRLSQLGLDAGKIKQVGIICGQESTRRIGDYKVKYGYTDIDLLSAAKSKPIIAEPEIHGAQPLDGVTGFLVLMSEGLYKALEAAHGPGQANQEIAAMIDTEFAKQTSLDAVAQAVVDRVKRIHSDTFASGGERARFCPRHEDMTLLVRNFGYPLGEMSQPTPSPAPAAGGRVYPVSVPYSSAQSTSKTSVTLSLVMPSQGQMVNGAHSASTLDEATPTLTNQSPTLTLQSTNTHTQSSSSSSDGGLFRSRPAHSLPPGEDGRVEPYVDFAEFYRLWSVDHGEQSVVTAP

[3] = target: T2, ADCK3 (Homo sapiens, UniProt Q8NI60)
T2 construct: gene COQ8A
T2 sequence (Q8NI60 whole entry): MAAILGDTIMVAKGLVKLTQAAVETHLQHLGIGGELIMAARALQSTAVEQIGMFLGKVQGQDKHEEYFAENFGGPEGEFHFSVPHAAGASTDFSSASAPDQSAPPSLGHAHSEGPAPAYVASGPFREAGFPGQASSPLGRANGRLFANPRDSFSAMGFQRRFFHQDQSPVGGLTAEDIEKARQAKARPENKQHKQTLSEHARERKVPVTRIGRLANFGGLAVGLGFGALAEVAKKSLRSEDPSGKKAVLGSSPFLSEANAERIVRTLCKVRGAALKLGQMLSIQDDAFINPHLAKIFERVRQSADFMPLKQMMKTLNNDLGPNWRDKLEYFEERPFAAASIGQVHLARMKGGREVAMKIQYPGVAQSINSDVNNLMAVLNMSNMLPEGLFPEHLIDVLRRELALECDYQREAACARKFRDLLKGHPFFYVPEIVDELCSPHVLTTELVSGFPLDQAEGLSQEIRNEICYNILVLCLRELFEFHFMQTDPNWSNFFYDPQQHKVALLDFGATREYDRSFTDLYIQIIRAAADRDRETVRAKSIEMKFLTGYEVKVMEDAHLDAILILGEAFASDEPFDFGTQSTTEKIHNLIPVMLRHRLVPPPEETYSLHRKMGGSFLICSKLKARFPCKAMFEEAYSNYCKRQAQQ

[4] = target: T3, STK17B (DRAK2) (Homo sapiens, UniProt O94768)
T3 sequence (O94768 1-372): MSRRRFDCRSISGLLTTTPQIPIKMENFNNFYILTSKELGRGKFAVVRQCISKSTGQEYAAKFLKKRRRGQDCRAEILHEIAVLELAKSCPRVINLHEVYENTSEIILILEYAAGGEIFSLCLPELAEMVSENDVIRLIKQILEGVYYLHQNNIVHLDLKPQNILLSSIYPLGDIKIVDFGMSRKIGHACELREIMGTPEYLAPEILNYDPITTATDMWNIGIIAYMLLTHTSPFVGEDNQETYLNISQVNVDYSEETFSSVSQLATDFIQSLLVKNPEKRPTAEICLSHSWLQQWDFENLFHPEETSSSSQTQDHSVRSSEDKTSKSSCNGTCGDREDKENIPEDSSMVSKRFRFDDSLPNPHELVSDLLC

[5] = target: T4, ULK2 (Homo sapiens, UniProt Q8IYT8)
T4 sequence (Q8IYT8 1-1036): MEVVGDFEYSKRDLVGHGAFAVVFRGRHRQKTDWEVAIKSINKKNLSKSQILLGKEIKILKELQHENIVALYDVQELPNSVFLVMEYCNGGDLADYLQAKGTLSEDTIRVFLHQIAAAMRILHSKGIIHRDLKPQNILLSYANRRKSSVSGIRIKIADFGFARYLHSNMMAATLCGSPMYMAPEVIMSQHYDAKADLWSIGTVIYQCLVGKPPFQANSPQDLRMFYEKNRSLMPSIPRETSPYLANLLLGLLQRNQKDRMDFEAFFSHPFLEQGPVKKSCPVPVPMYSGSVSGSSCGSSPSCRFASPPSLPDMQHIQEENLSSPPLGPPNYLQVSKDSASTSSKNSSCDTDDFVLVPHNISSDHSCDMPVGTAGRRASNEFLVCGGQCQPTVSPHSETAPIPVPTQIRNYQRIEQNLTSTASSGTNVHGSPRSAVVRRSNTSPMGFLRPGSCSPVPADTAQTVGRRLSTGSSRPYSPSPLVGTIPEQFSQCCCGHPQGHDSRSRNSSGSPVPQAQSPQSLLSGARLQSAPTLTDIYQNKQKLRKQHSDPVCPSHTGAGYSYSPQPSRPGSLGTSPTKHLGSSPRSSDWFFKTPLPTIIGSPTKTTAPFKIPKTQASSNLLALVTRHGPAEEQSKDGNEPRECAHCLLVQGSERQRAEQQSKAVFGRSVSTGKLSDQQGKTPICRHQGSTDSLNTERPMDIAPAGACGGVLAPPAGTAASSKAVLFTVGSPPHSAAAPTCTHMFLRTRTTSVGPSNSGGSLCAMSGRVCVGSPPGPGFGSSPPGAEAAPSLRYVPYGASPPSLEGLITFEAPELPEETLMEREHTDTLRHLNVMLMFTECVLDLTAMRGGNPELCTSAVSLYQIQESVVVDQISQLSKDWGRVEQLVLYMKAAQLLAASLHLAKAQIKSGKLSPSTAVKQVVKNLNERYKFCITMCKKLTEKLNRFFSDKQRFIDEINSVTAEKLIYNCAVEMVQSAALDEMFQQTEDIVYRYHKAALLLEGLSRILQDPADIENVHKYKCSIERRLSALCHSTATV

Chain of KIT V559D T670I (P10721 whole entry V559D/T670I): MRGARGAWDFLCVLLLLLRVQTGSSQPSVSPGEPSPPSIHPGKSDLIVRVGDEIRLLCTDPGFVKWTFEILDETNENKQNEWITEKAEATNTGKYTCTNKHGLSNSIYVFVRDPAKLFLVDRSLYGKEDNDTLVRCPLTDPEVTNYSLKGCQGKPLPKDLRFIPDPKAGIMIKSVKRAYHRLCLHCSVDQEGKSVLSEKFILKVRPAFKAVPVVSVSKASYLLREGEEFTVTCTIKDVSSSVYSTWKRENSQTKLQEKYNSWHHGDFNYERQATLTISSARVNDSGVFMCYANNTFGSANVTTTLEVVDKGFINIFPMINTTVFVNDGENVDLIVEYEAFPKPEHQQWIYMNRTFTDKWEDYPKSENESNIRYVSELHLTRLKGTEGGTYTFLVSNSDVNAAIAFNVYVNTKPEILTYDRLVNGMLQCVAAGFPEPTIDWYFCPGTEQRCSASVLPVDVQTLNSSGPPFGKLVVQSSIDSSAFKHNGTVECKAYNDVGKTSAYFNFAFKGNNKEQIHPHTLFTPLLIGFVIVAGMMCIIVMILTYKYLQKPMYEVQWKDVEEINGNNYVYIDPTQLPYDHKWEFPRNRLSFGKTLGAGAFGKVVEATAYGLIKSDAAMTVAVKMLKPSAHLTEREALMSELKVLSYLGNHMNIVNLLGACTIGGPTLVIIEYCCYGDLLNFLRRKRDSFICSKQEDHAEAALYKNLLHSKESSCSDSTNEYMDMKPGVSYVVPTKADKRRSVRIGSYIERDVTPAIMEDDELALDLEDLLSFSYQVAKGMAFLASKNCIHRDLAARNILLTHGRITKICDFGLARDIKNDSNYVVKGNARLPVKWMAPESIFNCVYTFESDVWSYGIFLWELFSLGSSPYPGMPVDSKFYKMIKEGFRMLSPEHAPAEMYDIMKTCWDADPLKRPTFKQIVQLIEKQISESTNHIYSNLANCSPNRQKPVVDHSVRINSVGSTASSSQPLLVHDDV

Row | Compound | inhibition at 1 µM [1] [%] | inhibition at 3 µM [1] [%] | inhibition at 10 µM [1] [%] | inhibition at 1 µM [2] [%] | inhibition at 3 µM [2] [%] | inhibition at 10 µM [2] [%] | inhibition at 1 µM [3] [%] | inhibition at 3 µM [3] [%] | inhibition at 10 µM [3] [%] | inhibition at 1 µM [4] [%] | inhibition at 3 µM [4] [%] | inhibition at 10 µM [4] [%] | inhibition at 1 µM [5] [%] | inhibition at 3 µM [5] [%] | inhibition at 10 µM [5] [%]
1 | CS(=O)(=O)Nc1cccc(-c2csc(NC(=O)CSc3nc4nccnc4c(=O)n3CCc3ccccc3)n2)c1 [compound 3, PITCOIN3] | -12.1 | 0.144 | 1.37 | -2.55 | -10.1 | -10.1 | 8.78 | 18.3 | 9.67 | -7.55 | -5.4 | 11.1 | -2.32 | -0.489 | 2.18
2 | O=C(CSc1nc2nccnc2c(=O)n1CCc1ccccc1)Nc1nccs1 [compound 1, PITCOIN1] | -4.48 | 0.47 | 6.38 | -3.93 | -9.87 | -11.5 | -3.76 | 8.79 | 13.7 | -6.01 | 2.55 | 4.06 | -4.11 | -4.09 | -1.99
